In US20220259551A1, “METHODS OF OPTIMIZED EUGLENA FERMENTATION USING ENGINEERED TANK DESIGN” (NOBLEGEN INC., priority 2019, published 2022):

Tested on: Euglena gracilis Z
Assay: Effect of organic acids, with or without glucose, on Euglena growth in shake flasks (Example 9)
Type: cell-based
Conditions: for % Increase in biomass between 48 h and 120 h / Net change in biomass: higher levels of acids (~2-5 g/L) solely or with glucose (~15 g/L); for higher acid contribution to biomass when fed along with glucose vs maximum acid alone contribution: higher acid concentrations (2-5 g/L); for higher acid contribution to biomass when fed along with glucose vs maximum acid alone contribution / further improvement in net biomass concentration compared to 48 h: end of 120 h; for higher biomass compared to control (glucose alone): higher levels of acids (~2-5 g/L) + glucose ~15 g/L; for higher biomass compared to control (glucose alone) / higher biomass compared to glucose alone (control) / net biomass: end of 48 h; for higher biomass compared to glucose alone (control): lower acid supplementation (~0.0005-0.05 g/L) + glucose 15 g/L
[1] = no glucose, acid conc. 0.05 g/L, 48 h
[2] = lactic acid 0.05 g/L + glucose 15 g/L, 48 h
[3] = fumaric acid 0.0005 g/L + glucose 15 g/L, 48 h

Row | Structure (SMILES) | % Increase in biomass between 48 h and 120 h [%] | Net change in biomass (incubation 48 h) [g/L] | Net change in biomass (incubation 120 h) [g/L] | Net biomass conc. (48 h) [1] [g/L] | higher acid contribution to biomass when fed along with glucose vs maximum acid alone contribution [%] | higher biomass compared to control (glucose alone) [%] | net biomass (~5 g/L as sole carbon source) [g/L] | other results
1 | O=C(O)CCC(=O)O [Succinic acid only] | 13.6 | 2.20 | 2.50 | 0.70 | – | – | – | –
2 | CC(=O)C(=O)O [Pyruvate only] | −11.1 | 0.90 | 0.80 | 1.00 | – | – | – | –
3 | CC(O)C(=O)O (stereo not drawn) [lactic acid] | – | – | – | – | 5.56 | 1.5 | 2.10 | biomass yield (g)/g of carbon [2]: 1.35 g/g of carbon; biomass yield (g)/g of carbon, higher than the control [2]: ~13%; conversion efficiency [2]: 54.8%; conversion efficiency, higher than the glucose control [2]: ~8%; higher biomass compared to glucose alone (control): 13.4%; further improvement in net biomass concentration compared to 48 h (~5 g/L as sole carbon source): 9.5%
4 | O=C(O)CCC(=O)O [succinate, succinic acid] | – | – | – | – | – | 3.1 | 2.20 | further improvement in net biomass concentration compared to 48 h (~5 g/L as sole carbon source): 13.6%
5 | CC(O)C(=O)O (stereo not drawn) [Lactic acid only] | 9.5 | 2.10 | 2.30 | 0.60 | – | – | – | –
6 | O=C(O)/C=C/C(=O)O [Fumaric acid only] | 4.8 | 2.10 | 2.20 | – | – | – | – | Net biomass conc. (48 h) (no glucose, acid conc. 0.0005 g/L, 48 h): 0.70 g/L
7 | O=C(O)/C=C/C(=O)O [fumaric acid] | – | – | – | – | 46.67 | 12.3 | 2.10 | conversion efficiency (15 g/L glucose and 2 g/L fumaric acid, 120 h): 57.4%; conversion efficiency (15 g/L glucose and 5 g/L fumaric acid, 120 h): 58.41%; biomass yield (g)/g of carbon, higher than glucose alone [3]: 8.4%; higher conversion efficiency compared to glucose alone (15 g/L) [3]: 21.9%; maximum biomass obtained (fumaric acid 2 g/L and 5 g/L): ~1.5 g/L; higher biomass compared to glucose alone (control): 7.5%
8 | CC(=O)C(=O)O [pyruvate, pyruvic acid] | – | – | – | – | 72.73 | – | – | net biomass (~2 g/L as sole carbon source): 0.90 g/L
9 | O=C(O)CC(O)C(=O)O (stereo not drawn) [Malic acid only] | −7.1 | 1.40 | 1.30 | 0.60 | – | – | – | –
10 | O=C(O)CC(O)C(=O)O (stereo not drawn) [malic acid] | – | – | – | – | 63.64 | 4.6 | 1.40 | higher biomass compared to glucose alone (control): −3%
11 | O=C[C@H](O)[C@@H](O)[C@H](O)[C@H](O)CO [Glucose (Control)] | 0.0 | 6.50 | 6.50 | – | – | – | – | Net biomass conc. (48 h) (Glucose conc. 15 g/L, no acid, 48 h): 6.70 g/L
